Paper PMC11901381 (Future Medicinal Chemistry, 2025)

Columns and labels:
[1] = system: L. major strain NIH S promastigotes; assay: Antipromastigote resazurin assay; assay type: cell-based, Leishmania major; conditions: for IC50: Leishmania major, read-out: Antipromastigote activity IC50; for AG (activity gain): IC50 (1)/IC50 (compd.), L. major promastigotes; for SI4: SI4 = IC50 Vero/IC50 promastigote, L. major
[2] = system: T. brucei brucei strain GUTat3.1; assay: Antitrypanosomal assay; assay type: cell-based, Trypanosoma brucei brucei; conditions: for IC50: Trypanosoma brucei, read-out: Antitrypomastigote activity IC50 ± SD Tbb GuTat3.1
General = assay type: cell-based; conditions: African green monkey, Vero cells (monkey kidney epithelial cells)
[3] = system: L. donovani strain 9515 promastigotes; assay: Antipromastigote resazurin assay; assay type: cell-based, Leishmania donovani; conditions: for IC50: Leishmania donovani, read-out: Antipromastigote activity IC50; for AG (activity gain): IC50 (1)/IC50 (compd.), L. donovani promastigotes; for SI1: SI1 = IC50 Vero/IC50 promastigote, L. donovani
[4] = Animal cytotoxicity, CCK-8 assay; assay type: cell-based, bovine; conditions: bovine, MDBK (Madin-Darby bovine kidney) cells
[5] = system: L. major strain NIH S intramacrophage amastigotes; assay: Intramacrophage antileishmanial resazurin assay; assay type: cell-based, Leishmania major; conditions: for SI5: SI5 = IC50 Vero/static IC50 amastigote; for SI5 / SI6 / SpI3 / SpI4: L. major; for SI6: SI6 = IC50 Vero/cidal IC50 amastigote; for SpI3: SpI3 = IC50 promastigote/static IC50 amastigote; for SpI4: SpI4 = IC50 promastigote/cidal IC50 amastigote; for Static anti-amastigote activity IC50: L. major NIH S amastigotes in THP-1 macrophages, 24 hours after lysis
[6] = Host cell toxicity, resazurin assay; assay type: cell-based; conditions: human
[7] = system: L. donovani strain 9515 intramacrophage amastigotes; assay: Intramacrophage antileishmanial resazurin assay; assay type: cell-based, Leishmania donovani; conditions: for SI2: SI2 = IC50 Vero/static IC50 amastigote; for SI2 / SI3 / SpI1 / SpI2: L. donovani; for SI3: SI3 = IC50 Vero/cidal IC50 amastigote; for SpI1: SpI1 = IC50 promastigote/static IC50 amastigote; for SpI2: SpI2 = IC50 promastigote/cidal IC50 amastigote; for Static anti-amastigote activity IC50: L. donovani 9515 amastigotes in THP-1 macrophages, 24 hours after lysis
[8] = system: T. congolense strain IL3000; assay: Antitrypanosomal assay; assay type: cell-based, Trypanosoma congolense; conditions: IC50 of MDBK/IC50 of trypanosome
[9] = Solubility observed during sample preparation and screening; assay type: physicochemical; conditions: for Solubility in 100% DMSO: 100% dimethyl sulfoxide used for sample preparation
[10] = system: T. brucei gambiense strain IL1922; assay: Antitrypanosomal assay; assay type: cell-based, Trypanosoma brucei gambiense; conditions: IC50 of MDBK/IC50 of trypanosome
[11] = system: T. brucei rhodesiense strain IL1501; assay: Antitrypanosomal assay; assay type: cell-based, Trypanosoma brucei rhodesiense; conditions: IC50 of MDBK/IC50 of trypanosome

| Structure (SMILES) | IC50 [1] | IC50 [2] | IC50 (General) | IC50 [3] | IC50 [4] | SI5 [5] | SI6 [5] | SpI3 [5] | SpI4 [5] | IC50 [6] | further results |
| --- | --- | --- | --- | --- | --- | --- | --- | --- | --- | --- | --- |
| O=Cc1c[nH]c2ccc([N+](=O)[O-])cc12 [2a, 5-Nitro-1H-indole-3-carbaldehyde] | > 100 µM | > 131 µM | > 100 µM | > 100 µM | > 526 µM | – | – | – | – | – | – |
| C#CCn1cc(C=O)c2cc([N+](=O)[O-])ccc21 [2b, 5-Nitro-1-(prop-2-yn-1-yl)-1 H-indole-3-carbaldehyde] | > 100 µM | > 110 µM | > 100 µM | > 100 µM | > 438 µM | 41 | 41 | 41 | 42 | 91.1 ± 12.6 µM | – |
| O=Cc1cn(Cc2ccccc2)c2ccc([N+](=O)[O-])cc12 [2c, 1-Benzyl-5-nitro-1 H-indole-3-carbaldehyde] | – | > 89 µM | > 100 µM | – | > 357 µM | – | – | – | – | > 100 µM | SI2 [7]: 28; SI3 [7]: 28; SpI1 [7]: 28; SpI2 [7]: 28 |
| Cc1ccc(Cn2cc(C=O)c3cc([N+](=O)[O-])ccc32)cc1 [2d, 1-(4-Methylbenzyl)-5-nitro-1 H-indole-3-carbaldehyde] | – | > 85 µM | 96.9 ± 5.35 µM | – | – | – | – | – | – | > 100 µM | AG (activity gain) [1]: 32.3; SI4 [1]: 68; AG (activity gain) [3]: 61; SI1 [3]: 117 |
| O=Cc1cn(Cc2cccc(Cl)c2)c2ccc([N+](=O)[O-])cc12 [2f, 1-(3-Chlorobenzyl)-5-nitro-1 H-indole-3-carbaldehyde] | – | > 79 µM | 99.91 ± 0.13 µM | – | – | 10 | 7 | – | 1 | > 100 µM | AG (activity gain) [1]: 5.3; SI4 [1]: 11 |
| O=C1NC(=S)S/C1=C\c1cn(Cc2ccccc2)c2ccc([N+](=O)[O-])cc12 [3c, (Z)-5-[(1-Benzyl-5-nitro-1 H-indol-3-yl)methylene]-2-thioxothiazolidin-4-one] | > 100 µM | > 73 µM | 18.8 ± 3.22 µM | > 100 µM | 99.13 ± 0.96 µM | 35 | 37 | 189 | 196 | > 100 µM | SI2 [7]: 6; SI3 [7]: 6; SpI1 [7]: 34; SpI2 [7]: 33; SI Tc IL3000 [8]: 5 |
| Cc1ccc(Cn2cc(/C=C3\SC(=S)NC3=O)c3cc([N+](=O)[O-])ccc32)cc1 [3d, (Z)-5-{[1-(4-Methylbenzyl)-5-nitro-1 H-indol-3-yl]methylene}-2-thioxothiazolidin-4-one] | > 100 µM | > 70 µM | 98.2 ± 1.62 µM | 87.4 ± 17.8 µM | – | 78 | – | 79 | 107 | > 100 µM | SI2 [7]: 19; SI3 [7]: 17; SpI1 [7]: 17; SpI2 [7]: 15; AG (activity gain) [3]: 0.6; SI1 [3]: 1 |
| O=C1NC(=S)S/C1=C\c1cn(Cc2ccc(F)cc2)c2ccc([N+](=O)[O-])cc12 [3e, (Z)-5-{[1-(4-Fluorobenzyl)-5-nitro-1H -indol-3-yl]methylene}-2-thioxothiazolidin-4-one] | > 100 µM | > 63 µM | 17.4 ± 1.33 µM | > 100 µM | 17 ± 2.65 µM | – | – | – | – | – | Solubility in 100% DMSO [9]: poor solubility; SI Tc IL3000 [8]: 7 |
| O=C1NC(=S)S/C1=C\c1cn(Cc2cccc(Cl)c2)c2ccc([N+](=O)[O-])cc12 [3f, (Z)-5-{[1-(3-Chlorobenzyl)-5-nitro-1 H-indol-3-yl]methylene}-2-thioxothiazolidin-4-one] | 17.7 ± 0.9 µM | > 61 µM | 22.2 ± 1.65 µM | 19.1 ± 3.7 µM | – | 5 | 8 | 4 | 7 | > 100 µM | AG (activity gain) [1]: 2.6; SI4 [1]: 1; Solubility in 100% DMSO [9]: poor solubility; SI2 [7]: 12; SI3 [7]: 11; SpI1 [7]: 10; SpI2 [7]: 10; AG (activity gain) [3]: 2.6; SI1 [3]: 1 |
| O=C1CSC(=S)N1/N=C/c1c[nH]c2ccc([N+](=O)[O-])cc12 [4a, (E)-3-{[(5-Nitro-1 H-indol-3-yl)methylene]amino}-2-thioxothiazolidin-4-one] | > 100 µM | > 61 µM | > 100 µM | > 100 µM | 66.8 ± 9.55 µM | – | – | – | – | – | – |
| C#CCn1cc(/C=N/N2C(=O)CSC2=S)c2cc([N+](=O)[O-])ccc21 [4b, (E)-3-({[5-Nitro-1-(prop-2-yn-1-yl)-1 H-indol-3-yl]methylene}amino)-2-thioxothiazolidin-4-one] | > 100 µM | > 59 µM | > 100 µM | > 100 µM | – | 11 | 12 | 11 | 12 | > 100 µM | Solubility in aqueous screening medium [9]: poor solubility |
| O=C1CSC(=S)N1/N=C/c1cn(Cc2ccccc2)c2ccc([N+](=O)[O-])cc12 [4c, (E)-3-{[(1-Benzyl-5-nitro-1 H-indol-3-yl)methylene]amino}-2-thioxothiazolidin-4-one] | > 100 µM | > 60 µM | > 100 µM | > 100 µM | – | 38 | 41 | 38 | 41 | > 100 µM | – |
| Cc1ccc(Cn2cc(/C=N/N3C(=O)CSC3=S)c3cc([N+](=O)[O-])ccc32)cc1 [4d, (E)-3-({[1-(4-Methylbenzyl)-5-nitro-1H -indol-3-yl]methylene}amino)-2-thioxothiazolidin-4-one] | 70.9 ± 14.3 µM | > 58 µM | > 100 µM | > 100 µM | – | – | – | – | – | – | AG (activity gain) [1]: 0.7; SI4 [1]: 1; Solubility in aqueous screening medium [9]: poor solubility; Static anti-amastigote activity IC50 [7]: inactive; Static anti-amastigote activity IC50 [5]: inactive |
| O=C1CSC(=S)N1/N=C/c1cn(Cc2ccc(F)cc2)c2ccc([N+](=O)[O-])cc12 [4e, (E)-3-({[1-(4-Fluorobenzyl)-5-nitro-1 H-indol-3-yl]methylene}amino)-2-thioxothiazolidin-4-one] | > 100 µM | 55.3 ± 4.84 µM | > 100 µM | > 100 µM | 22.4 ± 5.37 µM | – | – | – | – | – | SI Tbg IL1922 [10]: 0; SI Tbr IL1501 [11]: 0; Solubility in aqueous screening medium [9]: poor solubility; SI Tbb GuTat3.1 ([2]; IC50 of MDBK/IC50 of trypanosome): 0 |
| O=C1CSC(=S)N1/N=C/c1cn(Cc2cccc(Cl)c2)c2ccc([N+](=O)[O-])cc12 [4f, (E)-3-({[1-(3-Chlorobenzyl)-5-nitro-1 H-indol-3-yl]methylene}amino)-2-thioxothiazolidin-4-one] | > 100 µM | > 56 µM | 58.8 ± 13.2 µM | > 100 µM | – | – | – | – | – | – | – |
| C[C@@H]1[C@H](O)[C@@H](C)/C=C/C=C/C=C/C=C/C=C/C=C/C=C/[C@H](O[C@@H]2O[C@H](C)[C@@H](O)[C@H](N)[C@@H]2O)C[C@@H]2O[C@](O)(C[C@@H](O)C[C@@H](O)[C@H](O)CC[C@@H](O)C[C@@H](O)CC(=O)O[C@H]1C)C[C@H](O)[C@H]2C(=O)O [AMB, amphotericin B, reference compound] | – | – | – | 0.02 ± 0.009 µM | – | – | – | 0.1 | 0.2 | – | SpI1 [7]: 0.40; SpI2 [7]: 0.04 |
| CC[C@H]1CN2CCc3cc(OC)c(OC)cc3[C@@H]2C[C@@H]1C[C@H]1NCCc2cc(OC)c(OC)cc21 [Em, emetine, reference compound] | – | – | 0.09 ± 0.009 µM | – | – | – | – | – | – | – | – |
| Cc1ccc(C(=O)Nc2ccc(S(=O)(=O)O)c3cc(S(=O)(=O)O)cc(S(=O)(=O)O)c23)cc1NC(=O)c1cccc(NC(=O)Nc2cccc(C(=O)Nc3cc(C(=O)Nc4ccc(S(=O)(=O)O)c5cc(S(=O)(=O)O)cc(S(=O)(=O)O)c45)ccc3C)c2)c1 [Suramin, suramin, reference compound] | – | 0.07 ± 0.02 µM | – | – | > 70 µM | – | – | – | – | – | – |
| O=[N+]([O-])c1ccc2[nH]ccc2c1 [compound 1, 5-nitroindole] | 45.8 ± 5.47 µM | > 154 µM | 79.5 ± 14.9 µM | 50.3 ± 1.36 µM | – | – | – | – | – | > 100 µM | AG (activity gain) [1]: 1; SI4 [1]: 2; Static anti-amastigote activity IC50 [7]: inactive; Static anti-amastigote activity IC50 [5]: inactive; AG (activity gain) [3]: 1; SI1 [3]: 2 |
